Source: patent publication US20080206198A1, “Compounds and methods for pharmico-gene therapy of epithelial sodium channel associated disorders” (priority 2003, published 2008)
Structures can show the parent of a compound that is named as a salt. Peptide text beside a SMILES is read from it.

Legend:
[1] = test system: primary human fibroblasts; assay type: cell-based; settings: confluent primary human fibroblasts treated prior to rAAV infection; FACS at 96 hours post-infection
Experimental: Initial studies were performed in confluent primary human fibroblasts since dose titrations and toxicity could be quickly assessed. Selected agents were used to treat fibroblast monolayers prior to rAAV infection. rAAV transduction was assessed at 96 hours post-infection by FACS analysis, and the percentage of dead cells was simultaneously assessed by incorporation of propidium iodide.
These tripeptides are structurally related to chloroquine but have different lipid solubility and specificity for cysteine proteases (Seglen, 1983). These molecules decrease endosomal degradation of molecules by a mechanism different than altering pH.

[2] = test system: polarized human airway epithelial cells; assay type: cell-based; settings: for rAAV transduction from the basolateral surface: both ubiquitin ligase inhibitors combined, 2 mM pretreatment, 0.2 mM during infection; for rAAV transduction from the apical surface: data not shown
Experimental: Primary culture of human bronchial epithelia and reagents utilized. Primary human airway epithelial cells were collected by enzymatic digestion of bronchial samples from lung transplants, as previously described (Kondo et al., 1991; Zabner et al., 1996). Isolated primary airway cells were seeded at a density of 5×10^5 cells/cm^2 onto collagen-coated Millicell-HA culture inserts (Millipore Corp., Bedford, Mass.). Primary cultures were grown at the air-liquid interface for more than 2 weeks, by which time differentiation into a mucociliary epithelium occurs. The culture medium, used to feed only the basolateral side of the cells, contained 49% DMEM, 49% Ham's F12 and 2% Ultraser G (BioSepra, Cedex, France). Dimethyl Sulphoxide (DMSO), camptothecin (Camp), etoposide (Etop), aphidicolin (Aphi), hydroxyurea (HU) and genistein (Geni) were purchased from Sigma (St. Louis, Mo.). Tripeptidyl aldehyde proteasome inhibitors N-Acetyl-L-Leucyl-L-Leucyl-Norleucine (LLnL) and benzyloxycarbonyl-L-leucyl-L-leucyl-L-leucinal (Z-LLL) were purchased from Calbiochem-Novabiochem Corporation (La Jolla, Calif.). Ubiquitin ligase (E3) inhibitors were obtained from Bachem Bioscience Inc. (King of Prussia, Pa.). Anti-AAV capsid monoclonal antibody (Anti-VP1, 2 and 3) was purchased from American Research Products (Belmont, Mass.) and anti-ubiquitin antibody was purchased from Santa Cruz Biotechnology Inc. (Santa Cruz, Calif.).
Transduction of polarized airway epithelial cells and primary human fibroblasts. rAAV infection of fully differentiated bronchial cells was performed as described in Duan et al. (1998). For infections from the apical surface of the airway cells, 5 μl rAAV was mixed with 50 μl of culture media and applied directly onto the apical compartment of Millicell inserts (MOI=10,000 particles/cell). During apical infection, the basolateral side of the Millicell was continuously bathed in culture media. Gene transfer to the basal side was performed by inverting Millicell inserts and applying viral vector to the bottom of the supporting filter membrane in a 50 μl volume for 2 hours. Subsequently, Millicell inserts were returned to the upright position, in the continued presence of the original viral inoculum plus an additional 450 μl of media. For both apical and basolateral infections, rAAV containing media was removed after 24 hours and replaced with either fresh culture media (for the basal side) or exposed to air (for the apical side). To test the effect of different agents on the efficiency of AAV transduction in polarized airway cells, 1 μl of each solution was mixed with AAV prior to infection of airway epithelia. Agents were usually presented during the 24 hours AAV infection period unless indicated otherwise. Most of the agents were dissolved in DMSO except for hydroxyurea (dissolved in phosphate buffered saline), H-Leu-Ala-OH (dissolved in 0.9% glacial acetic acid) and H-His-Ala-OH (dissolved in 50% methanol). The working concentrations of the agents were as follows: 0.1 μM camptothecin, 10 μM etoposide, 5 μg/ml aphidicolin, 40 mM hydroxyurea, 50 μM genistein, 40 μM LLnL and 4 μM Z-LLL. When the ubiquitin ligase (E3) inhibitors (H-Leu-Ala-OH and H-His-Ala-OH) were used, airway cells were pretreated with a combination of both inhibitors at a final concentration of 2 mM for 60 minutes prior to infection, followed by the continued presence of inhibitor (0.2 mM) during the entire 24 hours infection period from the basolateral surface. Studies involving EGTA treatment were performed by transiently treating the apical membrane of polarized airway epithelia with 3 mM EGTA in water for 10 minutes (Duan et al., 1998). Following hypotonic EGTA treatment, cultures were washed twice with culture medium and infected with rAAV in the presence or absence of 40 μM LLnL. Human primary fibroblast cells (P4) were maintained in 10% fetal bovine serum (FBS), 1% penicillin and streptomycin, and 89% DMEM. […]

HeLa cells = assay: AAV2 FLAG-Luc transduction of HeLa cells (luciferase screen); assay type: cell-based, human; settings: for increase in transduction efficiency: at the doses tested, MOI 100, 2 hours infection, harvest 48 hours; for dose dependence of transduction: dose ranges tested; for order of potency among anthracyclines: 0.6, 3 and 6 μg/mL
Description: A. To screen for agents that enhance rAAV transduction, any number of cells can be used. A range of concentrations of the agent to be tested can be determined based on, for instance desirable profiles of the agent, desirable toxicity profiles of the agent and/or concentration of the agents employed in vivo. The usefulness of the cell type chosen for the screen can be confirmed by testing compounds, e.g., proteasome inhibitors such as LLnL and ZLL which are known to increase rAAV transduction. For example, a AAV2 FLAG-Luc vector was employed to transduce HeLa, ferret fibroblasts, IB3 and Huh (liver) cells in the presence or absence of the proteasome inhibitor MG132. MG132 was confirmed to enhance AAV transduction in all cell types tested: HeLa cell transduction was enhanced about 500-fold at 80 μM, and 200-fold at 40 μM, MG132; ferret fibroblast cell transduction was enhanced about 200-fold at 20 μM, and 17-fold at 4 μM, MG132; IB3-1 cell transduction was enhanced about 30 to 70-fold at 20 to 80 μM MG132; and Huh-7 cell transduction was enhanced about 15-fold at 20 to 80 μM MG132. There was no difference in rAAV transduction efficiency in HeLa cells when either DMSO or ETOH was used as a vehicle for MG132. B. HeLa cells were selected to screen for additional agents that enhance rAAV transduction, although any cell strain or line; or primary cells, may be employed. […] The range of concentrations of the agents to be tested were selected based on solubility profiles, toxicity profiles and/or concentrations previously employed in vivo.
HeLa cells were infected for 2 hours with an MOI of 100 rAAV in the presence of agents, e.g., ritonavir (Norvir) (1, 10 and 100 μM), cyclosporin A (2.5, 25 and 250 μg/ml), epoxomicin (1, 10 and 50 μM), alcacinomycin A (5, 50 or 500 μM), chymostatin (1, 10 and 100 μM), bestatin (1, 10 and 100 μM), doxorubicin (adriamycin) (0.1, 1 and 10 μM), camptothecin (camptosar) (1, 10 and 100 μM), eicosapentanoic acid (1, 10 and 100 μM), tannic acid (2, 20, 200 and 2000 μM), simvastatin, prodrug (2, 20 and 200 μM), cisplatin (0.2, 2 and 20 μg/mL), and chloroquine (4, 40 and 400 μM). Forty-eight hours after infection, cells were harvested for analysis. rAAV transduction was measured by removing the media from the cell cultures, adding 100 μL reporter lysis buffer (RLB) and freezing. The supernatant was thawed and transferred to microfuge tubes, freeze thawed an additional 2 times, clarified by centrifugation for 10 minutes and then analyzed for reporter gene expression on the lumometer. Protein was determined by Bradford analysis and results were expressed as relative light units per mg protein (RLU/mg).
Based on results with doxorubicin, a small number of FDA approved anthracyclines were tested for their relative in vitro and in vivo activities on AAV transduction. HeLa cells were infected with 100 ppc AAV2FLAG-Luc for 2 hours in the presence of different anthracyclines, e.g., doxorubicin, daunarubicin (Cerubidine), epirubicin (Ellence™), and idarubicin (Idamycin®), and cells harvested 48 hours later. The anthracyclines were pharmaceutical grade, and prepared according to the manufacturer's instructions. Prior to use, the agents were diluted in sterile water to an equal mass, e.g., 0.6 μg/mL, 3 μg/mL and 6 μg/mL. For example, 3 μg/mL idamycin increased luciferase expression by over 5000-fold while doxorubin increased luciferase expression by 58-fold. Generally, the potency was as follows: idarubicin>daunarubicin>epirubicin>doxorubicin.

## C[C@H]1CCC/C=C/[C@@H]2C[C@H](O)C[C@H]2[C@H](O)/C=C/C(=O)O1 [BFA, brefeldin A]
[1]
  rAAV transduction: significant enhancement of rAAV transduction

## C[C@H](NC(=O)[C@@H](N)Cc1cnc[nH]1)C(=O)O [H-His-Ala-OH] (H-His-Ala-OH)
[2]
  rAAV transduction from the basolateral surface: enhanced rAAV transduction from the basolateral surface

## CC(C)C[C@H](N)C(=O)N[C@@H](C)C(=O)O [H-Leu-Ala-OH] (H-Leu-Ala-OH)
[2]
  rAAV transduction from the basolateral surface: enhanced rAAV transduction from the basolateral surface

## Cl.N [NH4Cl]
[1]
  rAAV transduction: significantly inhibited rAAV transduction

## CC[C@@]1(O)C(=O)OCc2c1cc1n(c2=O)Cc2cc3ccccc3nc2-1 [camptothecin]
HeLa cells
  increase in transduction efficiency: 15 fold
  dose dependence of transduction: dose-dependent increase in transduction
[2]
  rAAV transduction from the apical surface: none of these agents facilitated rAAV transduction from the apical surface

## CCN(CC)CCCC(C)Nc1ccnc2cc(Cl)ccc12 (stereo not drawn) [chloroquine]
[1]
  rAAV transduction: significantly inhibited rAAV transduction

## N.N.[Cl][Pt][Cl] [cisplatin]
HeLa cells
  increase in transduction efficiency: 16 fold

## C=C1[C@@H](C)[C@H]2[C@H](Cc3ccccc3)NC(=O)[C@]23OC(=O)/C=C/[C@H](O)CCC[C@@H](C)C/C=C/[C@H]3[C@@H]1O [cytochalasin B]
[1]
  rAAV transduction: significant decrease in rAAV transduction

## COc1cccc2c1C(=O)c1c(O)c3c(c(O)c1C2=O)C[C@@](O)(C(C)=O)C[C@@H]3O[C@H]1C[C@H](N)[C@H](O)[C@H](C)O1 [daunarubicin]
HeLa cells
  order of potency among anthracyclines: idarubicin>daunarubicin>epirubicin>doxorubicin

## COc1cccc2c1C(=O)c1c(O)c3c(c(O)c1C2=O)C[C@@](O)(C(=O)CO)C[C@@H]3O[C@H]1C[C@H](N)[C@@H](O)[C@H](C)O1 [epirubicin]
HeLa cells
  order of potency among anthracyclines: idarubicin>daunarubicin>epirubicin>doxorubicin

## CC[C@H](C)[C@H](NC(=O)[C@H]([C@@H](C)CC)N(C)C(C)=O)C(=O)N[C@H](C(=O)N[C@@H](CC(C)C)C(=O)[C@@]1(C)CO1)[C@@H](C)O [epoxomicin]
HeLa cells
  increase in transduction efficiency: ≤ 120 fold
  dose dependence of transduction: dose-dependent increase in transduction

## COc1cc([C@@H]2c3cc4c(cc3[C@@H](O[C@@H]3O[C@@H]5CO[C@@H](C)O[C@H]5[C@H](O)[C@H]3O)[C@H]3COC(=O)[C@H]23)OCO4)cc(OC)c1O [etoposide]
[2]
  rAAV transduction from the apical surface: none of these agents facilitated rAAV transduction from the apical surface

## O=c1c(-c2ccc(O)cc2)coc2cc(O)cc(O)c12 [genistein]
[2]
  rAAV transduction from the apical surface: none of these agents facilitated rAAV transduction from the apical surface

## NC(=O)NO [hydroxyurea]
[2]
  rAAV transduction from the apical surface: none of these agents facilitated rAAV transduction from the apical surface

## CC[C@H](C)C(=O)O[C@H]1C[C@@H](C)C=C2C=C[C@H](C)[C@H](CC[C@@H]3C[C@@H](O)CC(=O)O3)[C@H]21 [lovastatin]
HeLa cells
  result in cell line screening: negative results

## CCC(C)(C)C(=O)O[C@H]1C[C@@H](C)C=C2C=C[C@H](C)[C@H](CC[C@@H]3C[C@@H](O)CC(=O)O3)[C@H]21 [simvastatin]
HeLa cells
  increase in transduction efficiency: 4 fold

## O=C(OC[C@H]1O[C@@H](OC(=O)c2cc(O)c(O)c(OC(=O)c3cc(O)c(O)c(O)c3)c2)[C@H](OC(=O)c2cc(O)c(O)c(OC(=O)c3cc(O)c(O)c(O)c3)c2)[C@@H](OC(=O)c2cc(O)c(O)c(OC(=O)c3cc(O)c(O)c(O)c3)c2)[C@@H]1OC(=O)c1cc(O)c(O)c(OC(=O)c2cc(O)c(O)c(O)c2)c1)c1cc(O)c(O)c(OC(=O)c2cc(O)c(O)c(O)c2)c1 [tannic acid]
HeLa cells
  increase in transduction efficiency: 17 fold

## CC[C@]1(O)C[C@@H]2CN(CCc3c([nH]c4ccccc34)[C@@](C(=O)OC)(c3cc4c(cc3OC)N(C)[C@H]3[C@@](O)(C(=O)OC)[C@H](OC(C)=O)[C@]5(CC)C=CCN6CC[C@]43[C@@H]65)C2)C1 [vinblastine, vinblastine sulfate]
[1]
  rAAV transduction: little effect on rAAV transduction
